Experimental data from US12558428B2, “Heterobifunctional compounds and their use in treating disease” (Halda Therapeutics OpCo, Inc., priority 2024, dated 2026).
Read-outs that look alike come from different tables or passages of the source.

What was measured:
Assay type in all cases: cell-based
[1] = tested on: T-Rex 293 cells having increased expression of estrogen receptor alpha protein; experiment: Cellular growth inhibition assay, T-Rex 293 cells, (+) doxycycline; details: 72 hours
Method in brief: (§1)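 Cells of an inducible ERα-expressing T-Rex 293 clone are seeded in charcoal-dextran FBS medium with or without 3 ng/mL doxycycline, then treated after 24 h with compound dilutions (0.5% DMSO) for 72 h. Growth inhibition is measured by CellTiter-Glo luminescence and expressed as GI50.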

[2] = tested on: T-Rex 293 cells lacking increased expression of estrogen receptor alpha protein; experiment: Cellular growth inhibition assay, T-Rex 293 cells, (−) doxycycline; details: 72 hours
Method in brief: as §1

[3] = tested on: MCF7 cells (ATCC #HTB-22); experiment: Cellular growth inhibition assay, MCF7 cells purchased from ATCC; details: Table 8-A, MCF7 cells purchased from ATCC, six days, CellTiter-Glo, read-out: GI50
Method in brief: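 GI50 values come from a four-parameter fit of CellTiter-Glo 2.0 luminescence after six days of compound exposure at 37° C. Seeding density depended on the source: 225 cells/well for ECACC MCF7, 1,500 for ATCC. Medium was RPMI 1640 with 10% FBS and 0.2 U/ml insulin.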

[4] = T-REx-293, 72 h, Table 7-A, T-Rex 293 cells with doxycycline (increased ERα expression), CellTiter-Glo, read-out: (+) Dox GI50
[5] = T-REx-293, 72 h, Table 7-A, T-Rex 293 cells without doxycycline (lacking increased ERα expression), CellTiter-Glo, read-out: (−) Dox GI50
[6] = T-REx-293, 72 h, T-Rex 293 cells with doxycycline-induced ERα expression, CellTiter-Glo 2.0, read-out: (+) Dox TRex ERa (GI50)
[7] = T-REx-293, 72 h, T-Rex 293 cells without doxycycline, CellTiter-Glo 2.0, read-out: (−) Dox TRex ERa (GI50)

GI50 ([3]; Homo sapiens, MCF7, 144 h) [nM] | GI50 [3] [nM] | Structure (SMILES) | GI50 [1, 4] [nM] | GI50 [2, 5] [nM] | GI50 [1, 6] [nM] | GI50 [2, 7] [nM] | GI50 ([1]; Table 7-A, T-Rex 293 cells with doxycycline (increased ERα expression), CellTiter-Glo, read-out: (+) Dox GI50) [nM] | GI50 ([2]; Table 7-A, T-Rex 293 cells without doxycycline (lacking increased ERα expression), CellTiter-Glo, read-out: (−) Dox GI50) [nM]
50 to 500 | – | Cc1sc2c(c1C)C(c1ccc(N3CCC(CN4CCN(c5cc(F)c([C@@H]6c7ccc(O)cc7CC[C@@H]6c6ccccc6)cc5F)CC4)CC3)cc1)=N[C@@H](C)c1nnc(C)n1-2 [III-317] | < 50 | 50 to 500 | – | – | – | –
< 50 | – | Cc1sc2c(c1C)C(c1ccc(OC3CC4(CCN(CCOc5ccc(C(=O)c6c(-c7ccc(O)cc7)sc7cc(O)ccc67)cc5)CC4)C3)cc1)=N[C@@H](Cc1ncco1)c1nnc(C)n1-2 [I-10, (S)-(6-hydroxy-2-(4-hydroxyphenyl)benzo[b]thiophen-3-yl)(4-(2-(2-(4-(2,3,9-trimethyl-6-(oxazol-2-ylmethyl)-6H-thieno[3,2-f][1,2,4]triazolo[4,3-a][1,4]diazepin-4-yl)phenoxy)-7-azaspiro[3.5]nonan-7-yl)ethoxy)phenyl)methanone] | – | – | < 50 | < 50 | – | –
50 to 500 | – | Cc1sc2c(c1C)C(c1ccc(N3CCN(CCN4CC(Oc5ccc(C6=C(c7ccc(Cl)cc7Cl)CCCc7cc(C(=O)O)ccc76)cc5)C4)CC3)cc1)=N[C@@H](C)c1nnc(C)n1-2 [IV-3] | < 50 | 500 to 2500 | – | – | – | –
> 2500 | – | Cc1sc2c(c1C)C(c1ccc(N3CCC(O)(CN4CCN(c5cc(F)c([C@H]6c7ccc(O)cc7CC[C@H]6c6ccccc6)c(F)c5)CC4)CC3)cc1)=N[C@@H](Cc1ncco1)c1nnc(C)n1-2 [III-194] | > 2500 | > 2500 | – | – | – | –
< 50 | – | Cc1sc2c(c1C)C(c1ccc(N3CC4(CCC(CN5CCC(c6ccc([C@@H]7c8ccc(O)cc8CC[C@@H]7c7ccc(F)cc7)cc6)CC5)CC4)C3)cc1)=N[C@@H](C)c1nnc(C)n1-2 [III-253] | < 50 | 500 to 2500 | – | – | – | –
50 to 500 | – | Cc1sc2c(c1C)C(c1ccc(N3CC4(CCC(CN5CCN(c6ccc([C@@H]7c8ccc(O)cc8CC[C@@H]7c7ccccc7)cc6Cl)CC5)CC4)C3)cc1)=N[C@@H](C)c1nnc(C)n1-2 [III-265] | 50 to 500 | > 2500 | – | – | – | –
50 to 500 | – | Cc1sc2c(c1C)C(c1ccc(NCC3CCN(CCOc4ccc([C@@H]5c6ccc(O)cc6CC[C@@H]5c5ccccc5)cc4)CC3)cc1)=NC(Cc1ncco1)c1nnc(C)n1-2 (stereo partly drawn) [III-33] | < 50 | 50 to 500 | – | – | – | –
50 to 500 | – | Cc1sc2c(c1C)C(c1ccc(N3CC(CN4CCC(O)(CN5CC(c6ccc([C@@H]7c8ccc(O)cc8CC[C@@H]7c7ccccc7)cc6)C5)CC4)C3)cc1)=N[C@@H](C)c1nnc(C)n1-2 [III-177] | < 50 | 50 to 500 | – | – | – | –
< 50 | – | Cc1sc2c(c1C)C(c1ccc(N3CC[C@@H](CNCCOc4ccc([C@@H]5c6ccc(O)cc6CC[C@@H]5c5ccccc5)cc4)C3)cc1)=NC(Cc1ncco1)c1nnc(C)n1-2 (stereo partly drawn) [III-61] | < 50 | 50 to 500 | – | – | – | –
50 to 500 | – | Cc1sc2c(c1C)C(c1ccc(N3CCC4(CCN(Cc5ccc([C@@H]6c7ccc(O)cc7CC[C@@H]6c6ccccc6)cc5)CC4)CC3)cc1)=N[C@@H](C)c1nnc(C)n1-2 [III-129] | 50 to 500 | 500 to 2500 | – | – | – | –
50 to 500 | – | Cc1sc2c(c1C)C(c1ccc(N3CCC(CC4(O)CCN(c5ccc([C@@H]6c7ccc(O)cc7CC[C@@H]6c6ccccc6)cc5)CC4)CC3)cc1)=N[C@@H](C)c1nnc(C)n1-2 [III-153] | < 50 | 500 to 2500 | – | – | – | –
< 50 | – | Cc1sc2c(c1C)C(c1ccc(N3CCC(O)(CN4CCN(c5ccc([C@@H]6c7ccc(O)cc7CC[C@@H]6c6ccc(F)cc6)cc5F)CC4)CC3)cc1)=N[C@@H](C)c1nnc(C)n1-2 [III-251, 4-((4-(2-fluoro-4-((1R,2S)-2-(4-fluorophenyl)-6-hydroxy-1,2,3,4-tetrahydronaphthalen-1-yl)phenyl)piperazin-1-yl)methyl)-1-(4-((S)-2,3,6,9-tetramethyl-6H-thieno[3,2-f][1,2,4]triazolo[4,3-a][1,4]diazepin-4-yl)phenyl)piperidin-4-ol] | < 50 | 500 to 2500 | – | – | – | –
50 to 500 | – | Cc1sc2c(c1C)C(c1ccc(N3CC4(CCC(F)(CN5CCC(c6ccc([C@@H]7c8ccc(O)cc8CC[C@@H]7c7ccccc7)cc6)CC5)CC4)C3)cc1)=N[C@@H](Cc1ncco1)c1nnc(C)n1-2 [III-227] | < 50 | > 2500 | – | – | – | –
50 to 500 | – | CC1=C(c2c(F)cc(F)cc2F)C(c2ccc(N3CCC4(CCCN(CCOc5ccc(C6=N[C@@H](C)c7nnc(C)n7-c7sc(C)c(C)c76)cc5)C4)C3)cc2)Oc2ccc(O)cc21 (stereo partly drawn) [V-17] | 50 to 500 | 50 to 500 | – | – | – | –
50 to 500 | – | Cc1sc2c(c1C)C(c1ccc(N3CCN(C4CCN(CCOc5ccc([C@@H]6c7ccc(O)cc7CC[C@@H]6c6ccccc6)cc5)CC4)CC3)cc1)=NC(Cc1ncco1)c1nnc(C)n1-2 (stereo partly drawn) [III-63] | < 50 | 50 to 500 | – | – | – | –
500 to 2500 | – | Cc1sc2c(c1C)C(c1ccc(OCCOCCCN3CC[C@H](Oc4ccc(C5=C(c6ccc(Cl)cc6Cl)CCCc6cc(O)ccc65)cc4)C3)cc1)=N[C@@H](C)c1nnc(C)n1-2 [I-36, 8-(2,4-dichlorophenyl)-9-(4-(((S)-1-(3-(2-(4-((S)-2,3,6,9-tetramethyl-6H-thieno[3,2-f][1,2,4]triazolo[4,3-a][1,4]diazepin-4-yl)phenoxy)ethoxy)propyl)pyrrolidin-3-yl)oxy)phenyl)-6,7-dihydro-5H-benzo[7]annulen-3-ol] | – | – | 500 to 2500 | 500 to 2500 | – | –
< 50 | – | Cc1sc2c(c1C)C(c1ccc(N3CCC(CN4CCN(c5ccc(C6=C(c7ccccc7Cl)CCCc7cc(C(=O)O)ccc76)c(F)c5)CC4)CC3)cc1)=N[C@@H](Cc1ncco1)c1nnc(C)n1-2 [IV-49] | < 50 | 500 to 2500 | – | – | – | –
50 to 500 | – | COc1cc(N2CCN(CC3(O)CCN(c4ccc(C5=N[C@@H](C)c6nnc(C)n6-c6sc(C)c(C)c65)cc4)CC3)CC2)ccc1[C@H]1c2ccc(O)cc2CC[C@H]1c1ccc(F)cc1 (single isomer, unassigned) [III-275] | 50 to 500 | 50 to 500 | – | – | – | –
50 to 500 | – | Cc1sc2c(c1C)C(c1ccc(N3CCN(CC4CCN(c5ccc([C@@H]6c7ccc(O)cc7CC[C@@H]6c6ccccc6)cc5)CC4)CC3)cc1)=N[C@H](Cn1cccn1)c1nnc(C)n1-2 [III-216] | > 2500 | > 2500 | – | – | – | –
< 50 | – | Cc1sc2c(c1C)C(c1ccc(N3CCC(O)(CN4CCN(c5ccc(C6=C(c7ccccc7Cl)CCCc7cc(C(=O)O)ccc76)cc5F)CC4)CC3)cc1)=N[C@@H](C)c1nnc(C)n1-2 [IV-35] | < 50 | 500 to 2500 | – | – | – | –
50 to 500 | – | Cc1sc2c(c1C)C(c1ccc(N3CCC(O)(CN4CCN(c5ccc(C6=C(c7ccc(Cl)c(Cl)c7)CCCc7cc(C(=O)O)ccc76)cc5)CC4)CC3)cc1)=N[C@@H](C)c1nnc(C)n1-2 [IV-52] | 50 to 500 | 500 to 2500 | – | – | – | –
50 to 500 | – | COc1cc(N2CCN(CC3(O)CCN(c4ccc(C5=N[C@@H](C)c6nnc(C)n6-c6sc(C)c(C)c65)cc4)CC3)CC2)c(F)cc1[C@H]1c2ccc(O)cc2CC[C@H]1c1ccccc1 (single isomer, unassigned) [III-312] | 50 to 500 | 50 to 500 | – | – | – | –
500 to 2500 | – | Cc1sc2c(c1C)C(c1ccc(N3CCC(O)(CN4CCN(c5ccc([C@@H]6c7ccc(O)cc7CC[C@@H]6c6ccc(F)cc6)cc5)CC4)CC3)cc1)=N[C@H](Cc1ncco1)c1nnc(C)n1-2 [III-208] | > 2500 | > 2500 | – | – | – | –
– | < 50 | Cc1sc2c(c1C)C(c1ccc(N3CC(CN4CC(CC5CN(c6ccc([C@@H]7c8ccc(O)cc8CC[C@@H]7c7ccccc7)cc6)C5)C4)C3)cc1)=N[C@@H](C)c1nnc(C)n1-2 [III-221] | – | – | – | – | < 50 | 50 to 500
< 50 | – | Cc1sc2c(c1C)C(c1ccc(N3CC(CN4CCN(c5ccc(C6=C(c7ccc(Cl)cc7Cl)CCCc7cc(C(=O)O)ccc76)cc5)CC4)C3)cc1)=N[C@@H](Cc1ncco1)c1nnc(C)n1-2 [IV-13] | < 50 | 50 to 500 | – | – | – | –
< 50 | – | Cc1sc2c(c1C)C(c1ccc(NC[C@H]3CC[C@H](CNCCOc4ccc([C@@H]5c6ccc(O)cc6CC[C@@H]5c5ccccc5)cc4)CC3)cc1)=NC(Cc1ncco1)c1nnc(C)n1-2 (stereo partly drawn) [III-49] | < 50 | 50 to 500 | – | – | – | –
50 to 500 | – | Cc1sc2c(c1C)C(c1ccc(N3CCN(CCOc4ccc([C@@H]5c6ccc(O)cc6CC[C@@H]5c5ccccc5)cc4)CC3)cc1)=N[C@@H](C)c1nnc(C)n1-2 [III-16] | 50 to 500 | 50 to 500 | – | – | – | –
